Measurements: ChEMBL document CHEMBL3885861, “Open TG-GATES”

Organism: Rattus norvegicus
Test: Open TG-GATES - Regimen: Daily Repeat
Type: toxicity, organism-based, Sprague-Dawley
Set-up: regimen Daily Repeat, gender Male, age 6 weeks
Details: in vivo, po, 1000 mg/kg, route gavage, dose level High; for APTT / Bas / Eos / Fbg / Hb / Ht / Lym / MCH / MCHC / MCV / Mono / Neu / PT / Plat / RBC / Ret / WBC: tissue Blood; for KIDNEY_L / KIDNEY_R / KIDNEY_TOTAL: tissue Kidney; for LIVER: tissue Liver; for A/G / ALP / ALT / AST / BUN / CRE / Ca / Cl / DBIL / GLC / IP / K / LDH / Na / PL / RALB / TBIL / TC / TG / TP / gamma-GTP: tissue Plasma

Cc1nnc2n1-c1ccc(Cl)cc1C(c1ccccc1Cl)=NC2 [TRIAZOLAM]
TERMINAL_BW (72 h, time 3 day): 221.7 g
APTT (72 h, time 3 day): 18.3 s
Bas (72 h, time 3 day): 0.2%
Eos (72 h, time 3 day): 1%
Fbg (72 h, time 3 day): 278.6 mg/dL
Hb (72 h, time 3 day): 13.8 g/dL
Ht (72 h, time 3 day): 41.1%
Lym (72 h, time 3 day): 78.2%
MCH (72 h, time 3 day): 21.3 pg
MCHC (72 h, time 3 day): 33.6%
MCV (72 h, time 3 day): 63.4 fL
Mono (72 h, time 3 day): 3.6%
Neu (72 h, time 3 day): 16%
PT (72 h, time 3 day): 13 s
Plat (72 h, time 3 day): 124.4 x10_4/uL
RBC (72 h, time 3 day): 650.2 x10_4/ul
Ret (72 h, time 3 day): 6.4%
WBC (72 h, time 3 day): 105.8 x10_2/uL
KIDNEY_L (72 h, time 3 day): 1 g
KIDNEY_R (72 h, time 3 day): 1 g
KIDNEY_TOTAL (72 h, time 3 day): 1.9 g
LIVER (72 h, time 3 day): 10.9 g
A/G (72 h, time 3 day): 0.9
ALP (72 h, time 3 day): 1527.4 IU/L
ALT (72 h, time 3 day): 56 IU/L
AST (72 h, time 3 day): 67.4 IU/L
BUN (72 h, time 3 day): 14.4 mg/dL
CRE (72 h, time 3 day): 0.2 mg/dL
Ca (72 h, time 3 day): 11.5 mg/dL
Cl (72 h, time 3 day): 102.8 meq/L
DBIL (72 h, time 3 day): 0.016 mg/dL
GLC (72 h, time 3 day): 167 mg/dL
IP (72 h, time 3 day): 9.1 mg/dL
K (72 h, time 3 day): 4.2 meq/L
LDH (72 h, time 3 day): 98.4 IU/L
Na (72 h, time 3 day): 141.6 meq/L
PL (72 h, time 3 day): 157 mg/dL
RALB (72 h, time 3 day): 2.6 g/dL
TBIL (72 h, time 3 day): 0.048 mg/dL
TC (72 h, time 3 day): 81.2 mg/dL
TG (72 h, time 3 day): 84.2 mg/dL
TP (72 h, time 3 day): 5.6 g/dL
gamma-GTP (72 h, time 3 day): 1 IU/L
TERMINAL_BW ([…], time 7 day): 254.6 g
TERMINAL_BW ([…], time 14 day): 312.6 g
TERMINAL_BW ([…], time 28 day): 383.1 g
APTT ([…], time 7 day): 17.8 s
Bas ([…], time 7 day): 0%
Eos ([…], time 7 day): 1%
Fbg ([…], time 7 day): 282.6 mg/dL
Hb ([…], time 7 day): 13.7 g/dL
Ht ([…], time 7 day): 40.7%
Lym ([…], time 7 day): 74%
MCH ([…], time 7 day): 20.9 pg
MCHC ([…], time 7 day): 33.6%
MCV ([…], time 7 day): 62.1 fL
Mono ([…], time 7 day): 2.6%
Neu ([…], time 7 day): 21.6%
PT ([…], time 7 day): 12.8 s
Plat ([…], time 7 day): 129.1 x10_4/uL
RBC ([…], time 7 day): 656.2 x10_4/ul
Ret ([…], time 7 day): 5.5%
WBC ([…], time 7 day): 113.3 x10_2/uL
APTT ([…], time 14 day): 18.3 s
Bas ([…], time 14 day): 0.4%
Eos ([…], time 14 day): 1%
Fbg ([…], time 14 day): 249.6 mg/dL
Hb ([…], time 14 day): 14.2 g/dL
Ht ([…], time 14 day): 43.5%
Lym ([…], time 14 day): 78.6%
MCH ([…], time 14 day): 20 pg
MCHC ([…], time 14 day): 32.6%
MCV ([…], time 14 day): 61.2 fL
Mono ([…], time 14 day): 2.6%
Neu ([…], time 14 day): 16.8%
PT ([…], time 14 day): 13.3 s
Plat ([…], time 14 day): 123.4 x10_4/uL
RBC ([…], time 14 day): 711.4 x10_4/ul
Ret ([…], time 14 day): 5.3%
WBC ([…], time 14 day): 135.4 x10_2/uL
APTT ([…], time 28 day): 18.3 s
Bas ([…], time 28 day): 0.2%
Eos ([…], time 28 day): 1.4%
Fbg ([…], time 28 day): 273 mg/dL
Hb ([…], time 28 day): 15.3 g/dL
Ht ([…], time 28 day): 45.2%
Lym ([…], time 28 day): 76.2%
MCH ([…], time 28 day): 19.7 pg
MCHC ([…], time 28 day): 33.9%
MCV ([…], time 28 day): 58.2 fL
Mono ([…], time 28 day): 2.2%
Neu ([…], time 28 day): 18.4%
PT ([…], time 28 day): 13.2 s
Plat ([…], time 28 day): 112.9 x10_4/uL
RBC ([…], time 28 day): 776.4 x10_4/ul
Ret ([…], time 28 day): 2.4%
WBC ([…], time 28 day): 103.3 x10_2/uL
KIDNEY_L ([…], time 7 day): 1.1 g
KIDNEY_R ([…], time 7 day): 1.1 g
KIDNEY_TOTAL ([…], time 7 day): 2.3 g
KIDNEY_L ([…], time 14 day): 1.3 g
KIDNEY_R ([…], time 14 day): 1.3 g
KIDNEY_TOTAL ([…], time 14 day): 2.5 g
KIDNEY_L ([…], time 28 day): 1.4 g
KIDNEY_R ([…], time 28 day): 1.4 g
KIDNEY_TOTAL ([…], time 28 day): 2.8 g
LIVER ([…], time 7 day): 12.4 g
LIVER ([…], time 14 day): 14.2 g
LIVER ([…], time 28 day): 15.2 g
A/G ([…], time 7 day): 0.9
ALP ([…], time 7 day): 1848.4 IU/L
ALT ([…], time 7 day): 47.2 IU/L
AST ([…], time 7 day): 67.2 IU/L
BUN ([…], time 7 day): 15.8 mg/dL
CRE ([…], time 7 day): 0.2 mg/dL
Ca ([…], time 7 day): 11.2 mg/dL
Cl ([…], time 7 day): 105 meq/L
DBIL ([…], time 7 day): 0.014 mg/dL
GLC ([…], time 7 day): 176.6 mg/dL
IP ([…], time 7 day): 7.4 mg/dL
K ([…], time 7 day): 4.7 meq/L
LDH ([…], time 7 day): 86.2 IU/L
Na ([…], time 7 day): 142 meq/L
PL ([…], time 7 day): 160.8 mg/dL
RALB ([…], time 7 day): 2.7 g/dL
TBIL ([…], time 7 day): 0.032 mg/dL
TC ([…], time 7 day): 78.6 mg/dL
TG ([…], time 7 day): 108.2 mg/dL
TP ([…], time 7 day): 5.7 g/dL
gamma-GTP ([…], time 7 day): 1 IU/L
A/G ([…], time 14 day): 0.9
ALP ([…], time 14 day): 1576.6 IU/L
ALT ([…], time 14 day): 48 IU/L
AST ([…], time 14 day): 71.6 IU/L
BUN ([…], time 14 day): 17.8 mg/dL
CRE ([…], time 14 day): 0.2 mg/dL
Ca ([…], time 14 day): 10.8 mg/dL
Cl ([…], time 14 day): 103.6 meq/L
DBIL ([…], time 14 day): 0.01 mg/dL
GLC ([…], time 14 day): 188.4 mg/dL
IP ([…], time 14 day): 7.7 mg/dL
K ([…], time 14 day): 4.1 meq/L
LDH ([…], time 14 day): 112.2 IU/L
Na ([…], time 14 day): 141.8 meq/L
PL ([…], time 14 day): 157.6 mg/dL
RALB ([…], time 14 day): 2.6 g/dL
TBIL ([…], time 14 day): 0.036 mg/dL
TC ([…], time 14 day): 74.8 mg/dL
TG ([…], time 14 day): 127.4 mg/dL
TP ([…], time 14 day): 5.7 g/dL
gamma-GTP ([…], time 14 day): 1 IU/L
A/G ([…], time 28 day): 0.8
ALP ([…], time 28 day): 950 IU/L
ALT ([…], time 28 day): 41.2 IU/L
AST ([…], time 28 day): 68.8 IU/L
BUN ([…], time 28 day): 15.4 mg/dL
CRE ([…], time 28 day): 0.2 mg/dL
Ca ([…], time 28 day): 10.5 mg/dL
Cl ([…], time 28 day): 105.2 meq/L
DBIL ([…], time 28 day): 0.002 mg/dL
GLC ([…], time 28 day): 181 mg/dL
IP ([…], time 28 day): 6 mg/dL
K ([…], time 28 day): 4 meq/L
LDH ([…], time 28 day): 75 IU/L
Na ([…], time 28 day): 142.2 meq/L
PL ([…], time 28 day): 159.8 mg/dL
RALB ([…], time 28 day): 2.8 g/dL
TBIL ([…], time 28 day): 0.046 mg/dL
TC ([…], time 28 day): 79.8 mg/dL
TG ([…], time 28 day): 92 mg/dL
TP ([…], time 28 day): 6.1 g/dL
gamma-GTP ([…], time 28 day): 1.2 IU/L
